Laboratory results as given in paper PMC9646673, “A Novel, Orally Bioavailable, Small-Molecule Inhibitor of PCSK9 With Significant Cholesterol-Lowering Properties In Vivo” (Journal of Lipid Research, 2022).
Several values for one entry are separate records, joined by “and”; a condition that tells them apart may be missing. Equal values may be shown once.

System: APOE∗3-Leiden.CETP mice
Test: First efficacy study (28 days): plasma lipids
Format: in vivo, mouse
Description: Animal experiments were approved by the governmental central committee on animal experiments (AVD5010020172064) and TNO’s animal welfare body (TNO-471 and TNO-482). Female APOE∗3-Leiden.CETP transgenic mice (11–16 weeks of age) were bred at the animal facility of TNO-InnoSer (Leiden, The Netherlands). Female animals were used in this study as they are more responsive to dietary cholesterol and fat than males and therefore typically develop atherosclerosis more rapidly than male APOE∗3-Leiden and APOE∗3-Leiden.CETP mice on cholesterol-containing diets ([33], [34]). Although measurements of atherosclerosis were not included as part of the present study, females were used with the prospect in mind that atherosclerosis studies will follow. The mice were housed under standard conditions that included 12 h light-dark cycles and access to a WTD and sterilized tap water ad libitum. Body weight, food intake, and clinical signs of behavior were monitored throughout the studies. […] Time t = 0 (weeks) was designated as the time at which mice were matched into groups after the 3-week run-in period in each efficacy study.
Treatment times were around 8:00 am and 4:00 pm each day. Throughout the in-life phase of the study, body weight and food intake (per cage) were measured at regular predetermined intervals while blood samples were collected every 7 days. The last gavage was administered on day 27. On day 28, the mice were sacrificed by CO2 asphyxiation, EDTA-plasma was obtained via heart puncture, and the liver was weighed and collected. Throughout the study, plasma cholesterol, triglycerides, HDL-C, lipoprotein profiles, PCSK9 expression levels, aspartate transaminase levels (AST), and alanine transaminase levels (ALT) were measured as described below.
In both studies, blood samples were collected at weekly intervals via tail vein sampling after fasting the mice for 4 h. Blood samples were centrifugated (4500 g at 4°C), and the plasma was collected for the following analyses. Total plasma cholesterol levels were determined using a Cholesterol CHOD-PAP kit according to the manufacturer’s instructions. Plasma HDL-C levels were determined by first precipitating apoB-containing lipids using PEG 6000/glycine and then utilizing the Cholesterol CHOD-PAP kit ([35]). Non-HDL-C levels were determined by subtracting HDL-C levels from total cholesterol levels ([32]). Group-pooled lipoprotein profiles were determined by FPLC analysis using an AKTApurifier 10 FPLC system (GE Healthcare, Chicago, IL). Plasma PCSK9 levels were determined using a Mouse PCSK9 Quantikine ELISA kit as per the manufacturer’s protocol. ALT and AST levels of group-pooled samples were measured using the Roche Reflotron Plus System (Mannheim, Germany).

[1] = 30 mg/kg BID PO, day 0 (baseline)
[2] = 50 mg/kg BID PO, day 0 (baseline)
[3] = 30 and 50 mg/kg BID PO, 28 days

Q: `Cc1cn(-c2cc(CN3CCC[C@H](N)C3)cc(NC(=O)c3cc(-c4ccccc4)ccn3)c2)cn1` [NYX-PCSK9i] was tested. Which “Plasma HDL- cholesterol (mean ± SEM)” value [1] did it give?
A: The value was 0.9 ± 0.2 mmol/L.

Q: And the “Plasma non-HDL- cholesterol (mean ± SEM)” value [1]?
A: Its value is 14.7 ± 1.6 mmol/L.

Q: What about the “Plasma triglycerides (mean ± SD)” value [1] of the same molecule?
A: Its value is 5.7 ± 2.2 mmol/L.

Q: And the “Plasma triglycerides (mean ± SD)” value (30 mg/kg BID PO, day 7)?
A: Its value is 7.0 ± 2.0 mmol/L.

Q: And the “Plasma HDL- cholesterol (mean ± SEM)” value (30 mg/kg BID PO, day 14)?
A: Its value is 0.4 ± 0.1 mmol/L.

Q: And the “Plasma non-HDL- cholesterol (mean ± SEM)” value (30 mg/kg BID PO, day 14)?
A: Its value is 13.1 ± 2.2 mmol/L.

Q: What about the “Plasma triglycerides (mean ± SD)” value (30 mg/kg BID PO, day 14) of the same molecule?
A: The value was 8.9 ± 1.8 mmol/L.

Q: And the “Plasma triglycerides (mean ± SD)” value (30 mg/kg BID PO, day 21)?
A: The value was 6.1 ± 1.5 mmol/L.

Q: And the “Plasma HDL- cholesterol (mean ± SEM)” value (30 mg/kg BID PO, day 28)?
A: The value was 0.8 ± 0.2 mmol/L.

Q: What about the “Plasma non-HDL- cholesterol (mean ± SEM)” value (30 mg/kg BID PO, day 28) of the same molecule?
A: Its value is 10.5 ± 1.4 mmol/L.

Q: And the “Plasma triglycerides (mean ± SD)” value (30 mg/kg BID PO, day 28)?
A: Its value is 5.7 ± 1.9 mmol/L.

Q: What about the “Plasma HDL- cholesterol (mean ± SEM)” value [2] of the same molecule?
A: Its value is 0.8 ± 0.1 mmol/L.

Q: What about the “Plasma non-HDL- cholesterol (mean ± SEM)” value [2] of the same molecule?
A: The value was 14.6 ± 2.5 mmol/L.

Q: And the “Plasma triglycerides (mean ± SD)” value [2]?
A: Its value is 6.1 ± 1.9 mmol/L.

Q: What about the “Plasma triglycerides (mean ± SD)” value (50 mg/kg BID PO, day 7) of the same molecule?
A: Its value is 5.9 ± 2.0 mmol/L.

Q: What about the “Plasma HDL- cholesterol (mean ± SEM)” value (50 mg/kg BID PO, day 14) of the same molecule?
A: The value was 0.6 ± 0.2 mmol/L.

Q: What about the “Plasma non-HDL- cholesterol (mean ± SEM)” value (50 mg/kg BID PO, day 14) of the same molecule?
A: Its value is 9.8 ± 2.4 mmol/L.

Q: And the “Plasma triglycerides (mean ± SD)” value (50 mg/kg BID PO, day 14)?
A: The value was 5.2 ± 1.7 mmol/L.

Q: And the “Plasma triglycerides (mean ± SD)” value (50 mg/kg BID PO, day 21)?
A: Its value is 4.2 ± 1.3 mmol/L.

Q: What about the “Plasma HDL- cholesterol (mean ± SEM)” value (50 mg/kg BID PO, day 28) of the same molecule?
A: The value was 0.9 ± 0.2 mmol/L.

Q: What about the “Plasma non-HDL- cholesterol (mean ± SEM)” value (50 mg/kg BID PO, day 28) of the same molecule?
A: The value was 6.8 ± 1.5 mmol/L.

Q: And the “Plasma triglycerides (mean ± SD)” value (50 mg/kg BID PO, day 28)?
A: Its value is 4.1 ± 1.2 mmol/L.

Q: And the “reduction of total cholesterol in absolute terms” value (50 mg/kg BID PO, day 28)?
A: Its value is 10.1 mM and 390 mg/dl.

Q: And the HDL-C levels [3]?
A: Its HDL-C levels is “no consistent reduction in HDL-C levels”.

Q: What about the “Mean plasma triglyceride levels” value [3] of the same molecule?
A: The value was “essentially unchanged”.
